Laboratory results: article PMC6891695, “Evaluation of Antifouling Potential and Ecotoxicity of Secondary Metabolites Derived from Red Algae of the Genus Laurencia” (Marine Drugs, 2019)
Where two headings read alike, the source gives them in different places.

What was measured:
in vivo = assay type: in vivo; details: Amphibalanus amphitrite, in vivo, read-out: LC50 Mortality; for LC50 at 24 h: 24 h exposure; for LC50 at 48 h: 48 h exposure; for LC50 at 72 h: 72 h exposure
Protocol: (§1) Adult A. amphitrite (Cirripedia, Balanidae) were collected from boat docks at Port Mikrolimano and Floisvos, Athens, Greece. Animals were cleaned of epibionts with a small hard brush and meticulously identified as individuals of the species. Adult barnacles were kept in separate aerated glass tanks (20 L) containing 200-μm filtered natural seawater at 27 °C and a 12:12 L:D photoperiod. Tanks were fed with 24-h hatched Artemia sp. (Branchiopoda) nauplii and Tetraselmis suecica (Chlorodendrophyceae) and Skeletonema costatum (Bacillariophyceae) algae each day and seawater was changed on alternate days. Upon stress to induce oviposition (exposure to air for 24 h or immersion in fresh water for 5 h), adults were returned to seawater for larval release. Hatched nauplii were attracted to a point light source, collected and placed into a beaker containing 2 or 3 L of 0.7 μm GF/F (GE Healthcare, Little Chalfont, UK )-filtered natural seawater at a density of approximately 1–2 nauplii/mL with gentle aeration. Nauplii were maintained at 27 °C at a 12:12 L:D photoperiod on a diet of C. gracilis (Bacillariophyceae) provided at a density of 2 × 10^5 cells/mL. Cultured in these conditions, nauplii metamorphosed to cyprids in 5 days. Aliquots of these cyprids were collected with a wide-mouthed Pasteur pipette and aged at 4 °C for 1 day prior to use in settlement assays. Only batches of cyprids that were active and had numerous oil cells, representing energy reserves, were used in settlement assays.
(§2) Assays were conducted by adding 10 cyprids into individual wells of a 24-well polystyrene sterile microplate (Orange Scientific, Braine l’Alleud, Belgium) with 2 mL of artificial sea water (ASW) (25‰) and various concentrations of the chemical compounds as listed in Table 1. These experiments were repeated at least three times with four replicates for each concentration of any given compound (n = 120 cyprids/compound). Stock solutions for all compounds were prepared in methanol (Scharlab, Barcelona, Spain) and serial dilutions were prepared in 0.7 μm (GF/F, GE Healthcare, Little Chalfont, UK), filtered sea water to have a final concentration of 2.5% methanol in each assay solution. Plates were covered and sealed with Parafilm® to avoid evaporation and incubated at 25 °C away from any light source and examined after 24, 48 and 72 h. Each animal was inspected under a stereomicroscope and its condition was recorded. […] Both permanently attached and metamorphosed individuals were counted as settled or juveniles. The remainder were counted as ‘no metamorphosis’, i.e. animals that responded to light touch and were still cyprids at the end of the experiments with no overt signs of metamorphosis.
(§3) For EC50 or IC50 (the concentration that results in 50% stimulation or inhibition relative to the control) calculations in GraphPad Prism v.6, all data were fitted to the curve according to the following models for normalized response: Y = 100/(1 + 10^((X − LogIC50))) or Y = 100/(1 + 10^((LogEC50 − X))) depending on the trend of the curve.

cyprids of A. amphitrite = assay: whole plant or invertebrate; assay type: in vivo; details: for EC50 / IC50: Amphibalanus amphitrite; for EC50: read-out: EC50 No Metamorphosis; for IC50: read-out: IC50 Settlement; for EC50 values for settlement inhibition of barnacle cyprids (in words): consistently, 24-72 h; for toxic effect on cyprids: in vivo
Protocol: as §1, §2, §3

[1] = Artemia salina toxicity assay; assay type: in vivo; details: Artemia salina, in vivo, read-out: EC50 Artemia salina toxicity (mortality)
Protocol: (§4) The short-term toxicity assay with A. salina nauplii was used to determine the toxicity of secondary metabolites. Hatching of A. salina nauplii was carried out in ASW (35‰) using 0.5 g of cysts incubated in 500 mL seawater at a temperature of 25 ± 1 °C and lateral illumination (1000 Lux). All cysts were kept in continuous suspension with aeration and 24 h later hatched larvae (instar I) were harvested. Toxicity assays were carried out in three independent experiments in 24-well plates with four replicates of each tested concentration. Ten nauplii per well were transferred with a Pasteur pipette into the 24-well plates and each well was filled with 2 mL of ASW and 50 μL of various concentrations of the tested compounds in methanol. Control treatments received 50 μL of methanol. Plates were incubated in the dark at 25 ± 1 °C for 48 h. Mortality was assessed by recording the number of individuals with no movement of their appendages within 10 seconds and is expressed as the percentage of the total number of assessed individuals for each concentration.
as §3

A. salina nauplii = assay: Artemia salina toxicity assay; assay type: in vivo; details: in vivo
Protocol: as §4, §3

Chaetoceros gracilis = Chaetoceros gracilis toxicity (phytoplankton growth) assay; assay type: cell-based; details: 96 h; for EC50: Chaetoceros neogracilis
Protocol: For phytoplankton growth toxicity assays, the criterion for assay validity was that the cell count of the negative control after 96 h should be ≥2 × 10^5 cells/mL [40].
The centric marine diatom C. gracilis Schütt (strain CCMP1315) was grown photoautotrophically in autoclaved artificial seawater (sea salts; Sigma-Aldrich, St. Louis, MO, USA) (30‰) supplemented with F/2 (half-strength medium f as subsequently modified) in 100 mL medium at 20 °C and with ambient air bubbled in the media. By monitoring cell density, an adjusted culture of >1 × 10^6 cells/mL was used for the toxicity assays. At 96 h, a 0.9 mL aliquot of each treatment was sampled, mixed with 0.1 mL Lugol and cell density was counted. Experiments were assumed valid if cell count in the control after 96 h was […].
as §3

[2] = tested on: five strains of marine bacteria; assay: Marine bacteria growth assay, positive control (strain not specified); assay type: cell-based; details: 40 μL of 0.5 M per disc
Protocol: The ability of selected metabolites to inhibit the growth of bacteria was assessed using five strains of marine bacteria involved in marine surface biofilm formation, namely, B. subtilis, B. mojavensis, B. thuringiensis, P. putita and P. pseudoalcaligenes. Bacterial strains were maintained on Zobel marine agar plates. Sterile filter paper discs (4 mm) (GF/F; GE Healthcare, Little Chalfont, UK) were loaded with 40 μL samples of serial dilutions of each tested metabolite, allowed to dry at room temperature and then placed on agar plates (Zobel marine agar, pH = 7.3), which were seeded with a single strain of bacteria. Plates were incubated for 24 h at 25 °C. Marine bacteria growth inhibition was determined by measuring the zone of inhibition in mm around the filter paper disc. As a positive and negative control, standard discs were loaded with 40 μL of 0.5 M penicillin G (2 to 10 mm diameter) or solvent (40 μL methanol), respectively.

Structure (SMILES)	LC50 at 24 h (in vivo) [µM]	LC50 at 48 h (in vivo) [µM]	LC50 at 72 h (in vivo) [µM]	EC50 (cyprids of A. amphitrite; 24 h) [µM]	IC50 (cyprids of A. amphitrite; 24 h) [µM]	EC50 (cyprids of A. amphitrite; 48 h) [µM]	IC50 (cyprids of A. amphitrite; 48 h) [µM]	EC50 (cyprids of A. amphitrite; 72 h) [µM]	IC50 (cyprids of A. amphitrite; 72 h) [µM]	EC50 values for settlement inhibition of barnacle cyprids (in words) (cyprids of A. amphitrite)	LC50 at 24 h [1] [µM]	LC50 at 48 h [1] [µM]	A. salina exclusion criterion (>10-fold change in EC50 between 24 h and 48 h) (A. salina nauplii)	C. gracilis exclusion criterion (EC50 compared with bromosphaerol) (Chaetoceros gracilis)	EC50 (Chaetoceros gracilis) [µM]	zone of inhibition (diameter) [2] [mm]	toxic effect on cyprids (cyprids of A. amphitrite)
Cc1ccc(C2(C)CCC(=CBr)C2C)c(O)c1 (centres unmarked) [Compound 4, iso-laurenisol]	3.55	2.98	2.8	10.3	0.12	12.4	0.18	5.85	0.34	sub-micromolar	21.1	0.739	did not pass this criterion	–	–	–	–
C#CC=CCC1OC(C(Br)CC)CC(OC(C)=O)C(Cl)CC1Cl (centres unmarked) [Compound 22, laurencienyne]	6.86	10.1	71.3	0.008	0.025	0.01	0.043	58.7	0.055	sub-micromolar	3.07	9.63	–	did not pass this criterion	2.15	–	–
CC1C(Br)C(=O)C(C)C23CCC2(C)C(Br)CC13C (centres unmarked) [Compound 11, perforatone]	56.1	38.4	–	0.003	0.003	0.002	0.002	–	0.002	sub-micromolar	10.1	1.57	–	did not pass this criterion	4.52	–	–
CC1(C)S[C@@H]2[C@H](NC(=O)Cc3ccccc3)C(=O)N2[C@H]1C(=O)O [penicillin G]	–	–	–	–	–	–	–	–	–	–	–	–	–	–	–	2 to 10	–
C=C1C[C@H](O)[C@H](Br)C(C)(C)[C@@]12CCC(C)=C(Cl)C2 [Compound 12, elatol]	0.327	0.194	0.061	0.396	0.089	0.25	0.073	0.066	0.042	sub-micromolar	6.59	0.373	did not pass this criterion	–	–	–	obvious toxic effect on cyprids
CC1(C(Br)CO)CC=C2C(C1)C(O)CC1C2(C)CCC(Br)C1(C)C (centres unmarked) [Compound 14, 3,15-dibromo-7,16-dihydroxy-isopimar-9(11)-ene]	1.96	3.61	3.54	6.42	0.011	5.15	0.065	7.72	0.028	sub-micromolar	34.2	15.1	–	did not pass this criterion	1.61	–	–
C=CC(C)(O)CC[C@H](Br)[C@@]1(C)CC[C@H](Br)C(C)(C)O1 (some centres unmarked) [Compound 13, obtusenol]	29.8	849	8.15	46.4	1.49	64.7	1.06	78.9	1.02	–	–	–	–	–	–	–	–
CC(C)C1=C2CCC(C)C2CC(C)(C)C1O (centres unmarked) [Compound 8, 4-hydroxy-5-brasilene]	7.76	7.38	5.93	6.81	15.8	5.01	17.5	5.42	6.95	–	–	–	–	–	–	–	obvious toxic effect on cyprids
C=C1CC[C@@](C)(c2cc(Br)c(C)cc2OC(C)=O)[C@H]1C [Compound 3, allolaurinterol acetate]	66.1	382	269	–	1.04	80.9	1.8	109	2	–	–	–	–	–	–	–	–
